B1: 5'-overhanging duplex RNA (42/24 nt) (dsRNA)
RNA 1: CAUUAUCGGAUAGUGGAACCUAGCUUCGACUAUCGGAUAAUC
RNA 2: GAUUAUCCGAUAGUCGAAGCUAGG

Experiments:
[1] = biological target: T1, MDR1 (multi-drug resistance-1) (Homo sapiens, UniProt P08183); test: cell tolerance (viability) assay, MDR1-overexpressing vs vector HCT-8 cells, reversed by elacridar; format: cell-based
T1 construct: gene ABCB1; transient over-expression from pCMV3-MDR1 in HCT-8 cells

[2] = biological target: MBP-CpeIF4A (Cryptosporidium parvum, UniProt F0X401 1-405); test: RNA alone, no ATP, no Roc-A; TSA: 90 mM Na2HPO4, 10 mM NaH2PO4, 2 mM DTT, pH 7.8, 5 uM MBP-CpeIF4A, 20 uM SYPRO Orange; melt 40-70 C at 1 C/min; settings: protein: recombinant; tags: N-terminal MBP (pMAL-c5X); label: 6-FAM on 42-nt strand (text says 5' end, printed at 3'); BHQ-1 on 24-nt strand (text says 3', printed at 5'); 5' overhang 18 nt on strand 1, 24 bp duplex

Molecule	cell tolerance (viability) assay, MDR1-overexpressing vs vector HCT-8 cells, rev [1]	Kd [2] [µM]
COc1ccc([C@@]23Oc4cc(OC)cc(OC)c4[C@]2(O)[C@H](O)[C@H](C(=O)N(C)C)[C@H]3c2ccccc2)cc1 [Roc-A, Rocaglamide A]	reversed this tolerance in a dose-dependent manner (Fig 1D, bars from 3a to 6b), verifying that Roc-A is an MDR1 substrate	–
B1	–	1.13
